“Also recorded” adds a separate entry of the source.
Experiments:
Format in all cases: in vivo, human (patient-derived), mouse host
[1] = test system: primary duodenal cancer cells; experiment: method of the present invention, drug screening on primary duodenal cancer cells from a patient; conditions: primary tumor tissue of duodenal ampullary tumor patient, FIG. 9
From the text: 4 to 5-week old female Nu/Nu mice was ordered from the supplier (purchased from Beijing Vital River Laboratory Animal Technology Co., Ltd.) and raised in SPF grade animal room. Before the experiment, the animal was adapted for at least three days. Freshly collected tumor samples obtained from surgery or from mouse PDX models containing tumor cells from patient were kept in a storage tube and transported to the laboratory on ice in the shortest possible time. After removing the non-tumor tissues and necrotic tissues in the biosafety cabinet, the tumor samples were cut into cubes of 1-3 mm^2, rinsed with HBSS. […] Collected cell suspension and centrifuged the suspension at 1000 rpm for 3 minutes to remove supernatant, and re-suspended in PBS containing 1% PBS; counted cell numbers and adjusted cell density to 1×10^8/ml. […] Counted the number of cells, and adjusted the cell density to 1-10×10^5/ml. […] 5-14 day after administration, the mice were killed and cell viability was detected by quantitative analysis of ATP by CellTiter-Glo luminescence in the modified polyvinylidene fluoride tubes. According to the viability of tumor cells in the control group, the percentages of cell viable proliferation (t/c %) in the experiment groups were calculated, and then the efficacy of the corresponding drugs was evaluated. […] The viability of the tumor cells was measured.

[2] = test system: patient-derived gastric cancer cells in GAPF155; experiment: traditional PDX method, mouse PDX model GAPF155; conditions: FIG. 2
From the text: (§1) The PDX model well maintains the biological characteristics the of primary tumor cells of a patient. The model is obtained by transplanting a fresh tumor tissue of a patient into an immune deficient mouse (e.g. a nude mouse or a severe combined immune deficiency (SCID) mouse). Such models maintain the genetic characteristics of the patient as well as tumor heterogeneity. Presently, the major difficulty of using PDX model for individualized precision medical treatment is the lengthy time period spent on modelling and sensitivity test, and the low success rate for modelling. For example, primary cell transplantation takes 2-3 months, and the drug sensitivity test takes 3-4 months. In addition, PDX modelling requires a high level of technical skills. Surgeons, histologists and researchers need to cooperate closely after the tumor sample is obtained from the patient. Therefore, how to improve the method for determining the sensitivity of tumor cells to an anti-tumor drug by using a PDX model becomes an urgent issue. The method for PDX mouse modelling is known in the art. […] The sensitivity of the patient-derived gastric cancer cells in GAPF155 to S-1 was detected by the traditional PDX method and the method of the present invention (FIG. 2 and FIG. 3).

[3] = test system: patient-derived gastric cancer cells from GAPF157; experiment: traditional PDX method, mouse PDX model GAPF157; conditions: FIG. 4
From the text: as §1, with “(FIG. 4” for “(FIG. 2”, “FIG. 5).” for “FIG. 3).”

[4] = test system: patient-derived gastric cancer cells in GAPF155; experiment: method of the present invention (implanted PVDF tube, CellTiter-Glo ATP viability), GAPF155 cells; conditions: FIG. 3
Description: (§2) The viability of the tumor cells was measured. Mouse PDX model GAPF155 was obtained by implanting primary gastric cancer cells into mice. After 2 months of feeding, patient-derived gastric cancer cells were obtained from GAPF155. The sensitivity of the patient-derived gastric cancer cells in GAPF155 to S-1 was detected by the traditional PDX method and the method of the present invention (FIG. 2 and FIG. 3).

[5] = test system: patient-derived gastric cancer cells from GAPF157; experiment: method of the present invention (implanted PVDF tube, CellTiter-Glo ATP viability), GAPF157 cells; conditions: FIG. 5
Description: as §2, with “model […]” for “model GAPF155”, “from GAPF157.” for “from GAPF155.”, “(FIG. 4” for “(FIG. 2”, “FIG. 5).” for “FIG. 3).”

| Molecule | response to drug in drug screening [1] | sensitivity of the tumor cells to the drug / anti-tumor activity [2] | sensitivity of the tumor cells to the drug / anti-tumor activity [3] | sensitivity of the tumor cells to the drug / anti-tumor activity [4] | sensitivity of the tumor cells to the drug / anti-tumor activity [5] |
| --- | --- | --- | --- | --- | --- |
| Nc1ccn([C@@H]2O[C@H](CO)[C@@H](O)C2(F)F)c(=O)n1 [gemcitabine] | well responded | – | – | – | – |
| Tegafur [S-1] | – | sensitive; also recorded: good anti-tumor activity | sensitive; also recorded: good anti-tumor activity | sensitive; also recorded: good anti-tumor activity | sensitive; also recorded: good anti-tumor activity |

— patent publication US20250093330A1, “METHOD AND DEVICE FOR DRUG SCREENING” (SHANGHAI LIDE BIOTECH CO., LTD., priority 2021, published 2025)
